From ChEMBL document CHEMBL1201862, “PubChem BioAssay data set” (2004)
Activity calls are given as the source filed them.

Columns and labels:
Ion channel NompC = Ion channel NompC (Danio rerio, UniProt Q7T1G6); experiment: Dose response cell-based high-throughput screening assay for agonists of the transient receptor potential channel N1 (TRPN1). [Related pubchem assays (depositor defined):AID1424, AID1448]; format: functional
Mucolipin-3 = biological target: T1, Mucolipin-3 (Homo sapiens, UniProt Q8TDD5); experiment: Fluorescence counterscreen assay for […] agonists: dose response cell-based high-throughput screening assay to identify agonists of the transient receptor potential channel ML3 (TRPML3). [Related pubchem assays: 1424, 1448 ]; format: functional
T1 sequence (Q8TDD5 whole entry): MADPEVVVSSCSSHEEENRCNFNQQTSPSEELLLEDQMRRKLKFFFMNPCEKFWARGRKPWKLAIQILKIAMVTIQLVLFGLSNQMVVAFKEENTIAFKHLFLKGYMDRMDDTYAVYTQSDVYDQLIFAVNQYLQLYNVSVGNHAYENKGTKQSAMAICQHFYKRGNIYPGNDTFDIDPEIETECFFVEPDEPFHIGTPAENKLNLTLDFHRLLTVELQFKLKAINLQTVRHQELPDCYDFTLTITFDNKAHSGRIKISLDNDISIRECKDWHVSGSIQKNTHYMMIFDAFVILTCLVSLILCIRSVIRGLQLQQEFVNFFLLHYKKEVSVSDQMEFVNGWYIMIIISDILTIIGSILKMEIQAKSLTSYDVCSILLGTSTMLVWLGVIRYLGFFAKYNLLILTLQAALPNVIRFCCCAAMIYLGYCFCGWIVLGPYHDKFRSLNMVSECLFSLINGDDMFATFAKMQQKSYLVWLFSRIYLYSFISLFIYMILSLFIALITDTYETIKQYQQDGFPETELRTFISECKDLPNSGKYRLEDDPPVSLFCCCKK

[1] = biological target: Signal transducer and activator of transcription 3 (Homo sapiens, UniProt P40763); experiment: STAT3 blockade with qPCR and toxicity readouts – cell-based, STAT1 panel, cytotoxicity, late-stage follow-up, panel member STAT3 Inhibition (AID 2078)
[2] = biological target: Signal transducer and activator of transcription 1-alpha/beta (Homo sapiens, UniProt P42224); experiment: STAT3 blockade with qPCR and toxicity readouts – cell-based, STAT1 panel, cytotoxicity, late-stage follow-up, panel member STAT1 Inhibition (AID 2078)
[3] = viability of uninfected HEp-2 cells – cell-based, HTS, cytotoxicity control for RSV inhibitor project, dose response (AID 2410); format: functional; conditions: human respiratory syncytial virus
BJ [4] = experiment: BJ-TERT fibroblast viability loss – cell-based, RAS-independent, luminescence, dose response (AID 1933); format: functional; conditions: Homo sapiens
BJ [5] = experiment: cells; format: functional, cell-based; conditions: Homo sapiens
[6] = viability of PTEN-deleted HCT116 cells – cell-based, HCT116 PTEN knockout, dose response (AID 1047); format: functional;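 also: HCT116 colon tumor cells with PTEN knocked out; cells exposed to compound for 60 hours before readout; potency for loss of cell viability measured by luminescence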
[7] = viability of HCT116 lacking mutant beta-catenin – cell-based, human colon tumor, dose response (AID 1045); format: functional;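 also: HCT116 colon tumor cells with beta catenin knocked out; cells exposed to compound for 60 hours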
BJ [8] = experiment: BJ-TERT-LT-ST fibroblast viability loss – cell-based, RAS-independent, luminescence, dose response (AID 1935); format: functional; conditions: Homo sapiens;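 also: BJ fibroblasts immortalized with TERT plus LT and ST oncogenes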
[9] = DRD fibroblast viability loss – cell-based, non-viral oncogenic, luminescence, dose response (AID 1934); format: functional; conditions: Homo sapiens
CAAX prenyl protease 2 = CAAX prenyl protease 2 (Saccharomyces cerevisiae S288c, UniProt Q03530); format: biochemical
[10] = biological target: T2, Replicative DNA helicase DnaB (Mycobacterium tuberculosis, UniProt P9WMR3); experiment: DnaB intein splicing inhibitors, dose response, biochemical, cell-free fluorescence (AID 449749); format: functional
T2 sequence (P9WMR3 whole entry): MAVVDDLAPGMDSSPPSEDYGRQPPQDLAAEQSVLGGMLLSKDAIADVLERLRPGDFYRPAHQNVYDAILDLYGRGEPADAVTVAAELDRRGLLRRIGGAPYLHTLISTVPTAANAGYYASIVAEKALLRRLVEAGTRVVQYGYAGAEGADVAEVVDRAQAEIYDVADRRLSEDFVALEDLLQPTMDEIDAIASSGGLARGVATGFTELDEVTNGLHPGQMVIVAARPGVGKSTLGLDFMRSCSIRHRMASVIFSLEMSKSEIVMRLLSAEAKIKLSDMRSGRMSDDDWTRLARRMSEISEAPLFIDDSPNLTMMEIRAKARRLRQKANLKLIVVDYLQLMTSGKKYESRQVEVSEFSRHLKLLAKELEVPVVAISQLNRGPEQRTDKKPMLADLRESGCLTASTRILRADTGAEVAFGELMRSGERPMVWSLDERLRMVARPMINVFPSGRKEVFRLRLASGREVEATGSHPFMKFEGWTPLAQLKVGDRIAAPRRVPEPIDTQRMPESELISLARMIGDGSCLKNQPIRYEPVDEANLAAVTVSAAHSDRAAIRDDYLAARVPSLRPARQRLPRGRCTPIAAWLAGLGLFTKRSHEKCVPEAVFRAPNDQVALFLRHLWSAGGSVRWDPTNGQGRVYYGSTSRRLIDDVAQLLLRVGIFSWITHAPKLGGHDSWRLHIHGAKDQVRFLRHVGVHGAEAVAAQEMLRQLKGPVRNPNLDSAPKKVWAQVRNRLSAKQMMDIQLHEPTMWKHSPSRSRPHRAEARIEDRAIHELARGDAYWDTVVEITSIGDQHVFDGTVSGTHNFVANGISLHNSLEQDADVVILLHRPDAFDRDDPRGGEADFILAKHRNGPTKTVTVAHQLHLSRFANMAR

Protein RecA = biological target: T3, Protein RecA (Mycobacterium tuberculosis, UniProt P9WHJ3); experiment: Fluorescence Cell-Free Homogeneous Dose Retest to Identify Inhibitors of RecA-Intein Splicing Activity. [Related pubchem assays (depositor defined):AID2097, AID2223, AID489010, AID492950]; format: functional
T3 sequence (P9WHJ3 whole entry): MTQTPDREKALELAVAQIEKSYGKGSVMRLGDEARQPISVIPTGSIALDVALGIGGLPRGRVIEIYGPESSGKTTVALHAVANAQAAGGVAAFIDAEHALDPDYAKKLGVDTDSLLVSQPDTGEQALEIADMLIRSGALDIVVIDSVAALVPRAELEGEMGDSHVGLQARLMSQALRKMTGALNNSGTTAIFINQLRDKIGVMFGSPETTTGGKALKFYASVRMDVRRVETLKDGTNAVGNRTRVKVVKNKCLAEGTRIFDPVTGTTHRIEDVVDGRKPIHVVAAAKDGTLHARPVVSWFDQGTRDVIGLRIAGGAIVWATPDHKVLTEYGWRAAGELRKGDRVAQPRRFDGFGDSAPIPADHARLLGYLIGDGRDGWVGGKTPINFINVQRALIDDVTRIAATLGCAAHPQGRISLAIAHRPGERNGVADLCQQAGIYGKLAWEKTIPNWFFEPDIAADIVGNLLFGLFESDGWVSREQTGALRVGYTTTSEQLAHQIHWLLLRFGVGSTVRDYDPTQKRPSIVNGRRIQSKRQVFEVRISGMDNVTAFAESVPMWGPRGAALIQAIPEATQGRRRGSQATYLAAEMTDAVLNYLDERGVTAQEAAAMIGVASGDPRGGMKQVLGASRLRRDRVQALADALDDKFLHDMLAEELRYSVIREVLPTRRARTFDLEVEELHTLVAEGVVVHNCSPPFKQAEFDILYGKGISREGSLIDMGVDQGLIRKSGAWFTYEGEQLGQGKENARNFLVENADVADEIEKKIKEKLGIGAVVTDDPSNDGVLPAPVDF

[11] = biological target: T4, Runt-related transcription factor 1/Core-binding factor subunit beta (Homo sapiens, UniProt Q01196+Q13951); experiment: disruptors of Runt domain/CBFb-SMMHC interaction – biochemical, FRET, Cerulean-Runt, Venus-CBFb-SMMHC, uHTS, […] (AID 1434); format: protein assay
[12] = biological target: T4, Runt-related transcription factor 1/Core-binding factor subunit beta; experiment: Runt domain/CBFb-SMMHC interaction disruptors – biochemical, TR-FRET (AID 1438); format: protein assay
[13] = biological target: T5, Sphingosine 1-phosphate receptor 4 (Homo sapiens, UniProt O95977); experiment: Late-stage fluorescence dose response cell-based assay to identify agonists of the Sphingosine 1-Phosphate Receptor 4 (S1P4): purchased compounds EC50. [Related pubchem assays (depositor defined):AID1509, AID1523, AID1563, AID1686, AID1701, AID1801]; format: functional
T5 sequence (O95977 whole entry): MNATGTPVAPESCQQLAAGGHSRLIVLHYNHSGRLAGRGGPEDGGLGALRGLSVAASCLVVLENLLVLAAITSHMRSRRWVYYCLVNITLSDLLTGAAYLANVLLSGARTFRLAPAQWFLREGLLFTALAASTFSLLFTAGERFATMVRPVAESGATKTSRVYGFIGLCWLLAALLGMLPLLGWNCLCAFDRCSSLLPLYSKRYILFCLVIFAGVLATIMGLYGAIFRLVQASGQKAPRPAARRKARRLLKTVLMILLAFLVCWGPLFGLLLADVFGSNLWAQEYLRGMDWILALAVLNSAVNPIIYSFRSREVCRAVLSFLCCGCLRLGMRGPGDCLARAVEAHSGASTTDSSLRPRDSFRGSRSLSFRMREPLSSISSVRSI

[14] = biological target: Sphingosine 1-phosphate receptor 1 (Homo sapiens, UniProt P21453); experiment: Fluorescence-based counterscreen assay for S1P4 agonists: Cell-based dose response high throughput screening assay to identify agonists of the Sphingosine 1-Phosphate Receptor 1 (S1P1). [Related pubchem assays (depositor defined):AID1509, AID1523, AID1801, AID463107, AID463118, AID463119, AID463122, AID463123, AID463129, AID463225, AID504400, AID504460]; format: functional
[15] = biological target: T5, Sphingosine 1-phosphate receptor 4; experiment: Fluorescence dose response cell-based high throughput screening assay for agonists of the Sphingosine 1-Phosphate Receptor 4 (S1P4). [Related pubchem assays: 1509 (Primary screen.), 1523 (Confirmation screen in triplicates.)]; format: functional
[16] = biological target: Glyceraldehyde-3-phosphate dehydrogenase (Homo sapiens, UniProt P04406)
[17] = biological target: Alkaline phosphatase, placental type (Homo sapiens, UniProt P05187); experiment: human placental alkaline phosphatase inhibition – biochemical, luminescence, confirmation (AID 1512); format: functional
Hexokinase = Hexokinase (Trypanosoma brucei, UniProt Q38C41); experiment: Confirmation assay for inhibitors of Trypanosoma brucei hexokinase 1-Analogue-first series. [Related pubchem assays (depositor defined):AID1430, AID1632, AID2516, AID2560, AID2579, AID2600, AID449725, AID492951]; format: functional
[18] = biological target: T6, G-protein coupled receptor 35 (Homo sapiens, UniProt Q9HC97); experiment: SAR analysis of Agonists of the GPR35 Receptor using an Image-Based Assay - Set 4. [Related pubchem assays (depositor defined):AID2013, AID2026]; format: functional
Cannabinoid receptor 1 [19] = biological target: T7, Cannabinoid receptor 1 (Homo sapiens, UniProt P21554); experiment: SAR analysis of agonists of the Cannabinoid Receptor 1 using an Image-Based Assay - Set 4. [Related pubchem assays (depositor defined):AID2013, AID2026]; format: functional
[20] = biological target: T6, G-protein coupled receptor 35; experiment: SAR analysis of Antagonists of the GPR35 Receptor using an Image-Based Assay - Set 6. [Related pubchem assays (depositor defined):AID2013, AID2026]; format: functional
Cannabinoid receptor 1 [21] = biological target: T7, Cannabinoid receptor 1; experiment: SAR analysis of antagonists of the Cannabinoid Receptor 1 using an Image-Based Assay - Set 4. [Related pubchem assays (depositor defined):AID2013, AID2026]; format: functional
[22] = biological target: G-protein coupled receptor 55 (Homo sapiens, UniProt Q9Y2T6); experiment: SAR Analysis of Selective Antagonists of GPR55 using an Image-Based Assay - Set 4. [Related pubchem assays (depositor defined):AID2013, AID2026]; format: functional;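 also: antagonism of response to 5 µM lysophosphatidylinositol agonist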
Cannabinoid receptor 2 [23] = biological target: T8, Cannabinoid receptor 2 (Homo sapiens, UniProt P34972); experiment: SAR analysis of antagonists of the Cannabinoid Receptor 2 using an Image-Based Assay - Set 3. [Related pubchem assays (depositor defined):AID2013, AID2026]; format: functional
Cannabinoid receptor 2 [24] = biological target: T8, Cannabinoid receptor 2; experiment: SAR analysis of agonists of the Cannabinoid Receptor 2 using an Image-Based Assay - Set 3. [Related pubchem assays (depositor defined):AID2013, AID2026]; format: functional

T8 sequence (P34972 whole entry): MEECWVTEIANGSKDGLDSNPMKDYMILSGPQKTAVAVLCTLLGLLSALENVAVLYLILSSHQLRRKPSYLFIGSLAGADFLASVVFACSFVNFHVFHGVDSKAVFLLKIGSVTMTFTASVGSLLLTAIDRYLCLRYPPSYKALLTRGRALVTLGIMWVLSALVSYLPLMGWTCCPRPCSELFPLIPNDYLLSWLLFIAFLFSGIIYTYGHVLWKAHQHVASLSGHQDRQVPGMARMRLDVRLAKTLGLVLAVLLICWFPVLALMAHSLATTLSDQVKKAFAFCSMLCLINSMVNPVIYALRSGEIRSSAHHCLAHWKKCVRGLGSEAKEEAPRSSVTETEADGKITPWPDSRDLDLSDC
T7 sequence (P21554 whole entry): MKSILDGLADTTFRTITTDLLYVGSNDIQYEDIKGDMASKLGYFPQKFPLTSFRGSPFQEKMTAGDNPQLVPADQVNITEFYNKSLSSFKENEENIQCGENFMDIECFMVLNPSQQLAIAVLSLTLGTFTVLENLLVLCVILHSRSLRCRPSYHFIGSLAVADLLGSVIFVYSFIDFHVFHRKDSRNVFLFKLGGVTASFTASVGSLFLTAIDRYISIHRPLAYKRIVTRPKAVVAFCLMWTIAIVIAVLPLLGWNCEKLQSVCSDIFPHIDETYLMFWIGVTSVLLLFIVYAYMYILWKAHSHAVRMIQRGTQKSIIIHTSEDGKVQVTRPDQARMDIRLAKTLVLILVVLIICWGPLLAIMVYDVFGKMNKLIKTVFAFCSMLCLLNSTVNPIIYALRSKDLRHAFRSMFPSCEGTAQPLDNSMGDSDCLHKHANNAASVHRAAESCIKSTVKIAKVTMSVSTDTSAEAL
T4 sequence (Q01196 whole entry, the tested form may be a part): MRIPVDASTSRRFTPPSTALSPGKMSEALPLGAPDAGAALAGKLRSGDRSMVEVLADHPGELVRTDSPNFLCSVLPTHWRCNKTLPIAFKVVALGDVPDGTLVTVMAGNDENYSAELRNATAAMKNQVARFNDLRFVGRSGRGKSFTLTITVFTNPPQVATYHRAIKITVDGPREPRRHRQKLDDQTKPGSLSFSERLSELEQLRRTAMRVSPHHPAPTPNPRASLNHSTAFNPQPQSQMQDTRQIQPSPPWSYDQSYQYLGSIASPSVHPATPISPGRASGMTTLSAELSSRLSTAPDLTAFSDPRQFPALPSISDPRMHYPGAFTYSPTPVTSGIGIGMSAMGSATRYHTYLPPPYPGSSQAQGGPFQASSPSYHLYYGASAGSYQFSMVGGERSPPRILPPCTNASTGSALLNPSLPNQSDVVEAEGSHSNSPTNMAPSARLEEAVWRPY
T4 sequence (Q13951 whole entry, the tested form may be a part): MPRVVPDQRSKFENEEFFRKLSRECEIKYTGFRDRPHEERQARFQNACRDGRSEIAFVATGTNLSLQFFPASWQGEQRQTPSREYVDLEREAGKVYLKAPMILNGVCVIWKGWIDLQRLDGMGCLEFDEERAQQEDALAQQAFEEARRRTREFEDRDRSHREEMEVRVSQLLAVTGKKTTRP
T6 sequence (Q9HC97 whole entry): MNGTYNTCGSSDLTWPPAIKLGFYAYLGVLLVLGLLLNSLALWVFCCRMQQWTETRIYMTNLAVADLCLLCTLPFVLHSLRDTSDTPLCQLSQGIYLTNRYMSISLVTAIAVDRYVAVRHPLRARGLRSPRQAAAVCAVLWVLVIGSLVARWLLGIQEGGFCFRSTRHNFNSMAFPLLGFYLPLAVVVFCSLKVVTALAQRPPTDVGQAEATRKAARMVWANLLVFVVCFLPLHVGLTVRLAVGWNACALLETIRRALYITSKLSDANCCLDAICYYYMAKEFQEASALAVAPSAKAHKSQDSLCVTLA
Chain of Signal transducer and activator of transcription 3 (P40763 whole entry): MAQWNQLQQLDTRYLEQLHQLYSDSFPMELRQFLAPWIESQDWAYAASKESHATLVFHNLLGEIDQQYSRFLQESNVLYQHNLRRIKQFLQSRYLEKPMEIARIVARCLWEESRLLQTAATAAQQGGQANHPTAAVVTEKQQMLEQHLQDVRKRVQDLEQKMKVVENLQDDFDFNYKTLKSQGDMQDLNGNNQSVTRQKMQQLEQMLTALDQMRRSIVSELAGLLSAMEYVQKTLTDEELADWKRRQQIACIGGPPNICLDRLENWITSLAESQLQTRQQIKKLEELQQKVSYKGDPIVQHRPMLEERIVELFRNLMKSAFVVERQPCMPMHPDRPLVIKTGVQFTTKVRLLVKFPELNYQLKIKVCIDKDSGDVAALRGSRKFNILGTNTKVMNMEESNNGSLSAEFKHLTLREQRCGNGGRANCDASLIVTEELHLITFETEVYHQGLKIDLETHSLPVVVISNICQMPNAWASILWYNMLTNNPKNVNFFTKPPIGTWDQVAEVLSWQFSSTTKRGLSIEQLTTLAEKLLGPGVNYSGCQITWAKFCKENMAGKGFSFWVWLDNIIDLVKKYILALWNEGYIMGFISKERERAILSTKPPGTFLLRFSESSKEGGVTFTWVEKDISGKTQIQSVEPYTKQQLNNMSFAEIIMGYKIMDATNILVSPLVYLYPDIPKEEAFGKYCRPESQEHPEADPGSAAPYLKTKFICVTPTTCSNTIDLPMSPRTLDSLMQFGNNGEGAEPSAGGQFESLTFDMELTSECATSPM
Chain of G-protein coupled receptor 55 (Q9Y2T6 whole entry): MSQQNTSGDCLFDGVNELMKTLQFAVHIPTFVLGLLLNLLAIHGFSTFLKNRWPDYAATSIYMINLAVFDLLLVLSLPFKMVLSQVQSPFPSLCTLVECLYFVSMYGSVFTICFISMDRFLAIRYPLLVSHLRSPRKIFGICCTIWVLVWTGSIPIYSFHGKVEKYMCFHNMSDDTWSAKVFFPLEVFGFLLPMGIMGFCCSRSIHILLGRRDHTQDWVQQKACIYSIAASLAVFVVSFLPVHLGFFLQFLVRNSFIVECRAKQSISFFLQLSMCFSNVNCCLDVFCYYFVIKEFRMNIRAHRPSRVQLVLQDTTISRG
Chain of Sphingosine 1-phosphate receptor 1 (P21453 whole entry): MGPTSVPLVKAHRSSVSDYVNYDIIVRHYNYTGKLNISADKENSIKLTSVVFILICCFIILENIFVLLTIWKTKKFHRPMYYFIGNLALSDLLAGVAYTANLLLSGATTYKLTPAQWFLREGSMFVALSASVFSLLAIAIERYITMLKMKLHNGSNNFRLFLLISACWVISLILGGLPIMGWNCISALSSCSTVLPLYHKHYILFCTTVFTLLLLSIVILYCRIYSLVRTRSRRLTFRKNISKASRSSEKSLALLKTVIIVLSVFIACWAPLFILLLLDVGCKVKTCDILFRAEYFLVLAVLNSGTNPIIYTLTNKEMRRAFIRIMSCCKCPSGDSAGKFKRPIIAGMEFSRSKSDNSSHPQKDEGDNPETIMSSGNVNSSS
Chain of Alkaline phosphatase, placental type (P05187 whole entry): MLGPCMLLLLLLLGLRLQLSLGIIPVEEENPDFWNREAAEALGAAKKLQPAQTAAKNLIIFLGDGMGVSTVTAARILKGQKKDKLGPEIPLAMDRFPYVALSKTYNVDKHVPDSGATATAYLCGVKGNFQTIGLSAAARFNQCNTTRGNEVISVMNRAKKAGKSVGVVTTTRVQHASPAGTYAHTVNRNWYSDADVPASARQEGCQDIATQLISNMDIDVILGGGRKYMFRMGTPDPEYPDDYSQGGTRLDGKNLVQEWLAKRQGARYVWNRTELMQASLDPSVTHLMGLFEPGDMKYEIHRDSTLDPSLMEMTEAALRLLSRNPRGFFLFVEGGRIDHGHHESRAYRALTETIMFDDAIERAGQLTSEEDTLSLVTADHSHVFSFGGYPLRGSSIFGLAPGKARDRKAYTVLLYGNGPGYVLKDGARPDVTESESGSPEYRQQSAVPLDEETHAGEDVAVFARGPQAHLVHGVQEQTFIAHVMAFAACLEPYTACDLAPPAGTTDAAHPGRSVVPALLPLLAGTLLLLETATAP
Chain of Hexokinase (Q38C41 whole entry): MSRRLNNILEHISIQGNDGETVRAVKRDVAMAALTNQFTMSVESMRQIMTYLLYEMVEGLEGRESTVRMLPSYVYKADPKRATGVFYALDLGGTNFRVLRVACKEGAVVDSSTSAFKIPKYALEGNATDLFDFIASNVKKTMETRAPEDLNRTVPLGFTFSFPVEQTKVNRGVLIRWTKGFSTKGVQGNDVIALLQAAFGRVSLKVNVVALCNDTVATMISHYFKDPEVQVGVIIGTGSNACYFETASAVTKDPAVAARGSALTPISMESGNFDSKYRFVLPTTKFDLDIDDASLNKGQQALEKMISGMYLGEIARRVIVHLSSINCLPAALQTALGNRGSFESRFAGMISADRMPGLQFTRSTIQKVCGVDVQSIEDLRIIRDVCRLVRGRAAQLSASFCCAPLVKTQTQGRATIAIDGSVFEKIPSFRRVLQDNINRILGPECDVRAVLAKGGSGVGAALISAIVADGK
Chain of Glyceraldehyde-3-phosphate dehydrogenase (P04406 whole entry): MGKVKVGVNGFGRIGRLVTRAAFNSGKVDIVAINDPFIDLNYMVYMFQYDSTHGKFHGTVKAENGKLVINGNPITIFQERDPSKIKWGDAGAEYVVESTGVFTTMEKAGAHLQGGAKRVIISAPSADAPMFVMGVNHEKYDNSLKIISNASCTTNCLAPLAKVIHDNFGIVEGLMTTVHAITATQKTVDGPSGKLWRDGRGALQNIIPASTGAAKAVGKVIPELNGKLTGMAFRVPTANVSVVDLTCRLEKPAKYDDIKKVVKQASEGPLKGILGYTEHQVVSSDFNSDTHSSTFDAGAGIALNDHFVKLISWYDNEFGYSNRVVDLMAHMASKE
Chain of CAAX prenyl protease 2 (Q03530 whole entry): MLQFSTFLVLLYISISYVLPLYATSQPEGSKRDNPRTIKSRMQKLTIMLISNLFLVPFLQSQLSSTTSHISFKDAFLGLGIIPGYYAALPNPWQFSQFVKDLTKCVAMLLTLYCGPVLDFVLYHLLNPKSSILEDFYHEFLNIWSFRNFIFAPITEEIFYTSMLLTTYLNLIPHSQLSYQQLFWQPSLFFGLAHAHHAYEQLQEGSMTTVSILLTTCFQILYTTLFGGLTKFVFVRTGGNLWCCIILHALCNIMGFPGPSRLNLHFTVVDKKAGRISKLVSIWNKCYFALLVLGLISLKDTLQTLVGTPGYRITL

CCOC(=O)C1C(c2ccc3c(c2)OCO3)NC(=O)NC1(O)C(F)(F)F (centres undefined)
EC50 (Ion channel NompC): > 29.9 µM (inactive)
EC50 (Mucolipin-3): > 29.9 µM (not active)

Cc1sc2ncnc(N3CCC(C(=O)c4ccccc4)CC3)c2c1C
IC50 [1]: 5.21 µM (active)
IC50 [2]: > 55.7 µM (inactive)

COC(=O)CSc1nc(N)c2c3c(sc2n1)C(c1ccccc1)SC(c1ccccc1)C3 (centres undefined)
CC50 [3]: > 50 µM (active)
EC50 (BJ [4]): 8.88 µM (inconclusive)
EC50 (BJ [5]): > 150 µM (inconclusive)
EC50 [6]: 14.2 µM (active)
EC50 [7]: 14.4 µM (active)
EC50 (BJ [8]): 17.1 µM (inconclusive)
EC50 [9]: 11.4 µM (active)
AC50 (CAAX prenyl protease 2): 13.8 µM (active)
AC50 [10]: > 380 µM (inactive)
EC50 (Protein RecA): > 380 µM (inactive)

O=C1Nc2ccccc2C12Nc1ccccc1S2 (centres undefined)
IC50 [11]: 8.95 µM (active)
IC50 [12]: 28.2 µM (active)

Cc1ccc(OCC(=O)Nc2ccc(Cl)cc2F)c([N+](=O)[O-])n1
EC50 [13]: > 50 µM (inactive)

CCOC(=O)c1c(-n2c(C)cc(/C=C3\C(=O)NC(=O)N(C)C3=O)c2C)sc2c1CCCC2
EC50 [14]: > 49.8 µM (inactive)
EC50 [15]: > 49.8 µM (not active)

CN(C)C(=O)c1cc(-c2cc(F)c(Cl)cc2Cl)n[nH]1
IC50 [16]: > 100 µM (not active)
IC50 [17]: > 100 µM (inactive)

O=c1c2cccnc2sn1-c1ccccc1
IC50 (Hexokinase): 2.27 µM (active)

Cc1[nH]nc(-c2ccc(O)cc2O)c1-c1ccc(Br)cc1
EC50 [18]: > 32 µM (inactive)
EC50 (Cannabinoid receptor 1 [19]): > 32 µM (inactive)
IC50 [20]: > 32 µM (inactive)
IC50 (Cannabinoid receptor 1 [21]): 0.981 µM (active)
IC50 [22]: 5.4 µM (active)
IC50 (Cannabinoid receptor 2 [23]): 9.2 µM (active)
EC50 (Cannabinoid receptor 2 [24]): > 32 µM (inactive)
